Assay results from patent publication US20250171437A1 (Agios Pharmaceuticals,Inc., priority 2022, published 2025).

Target: T1, human PAH with the R408W mutation (A375 R408W cells) (Homo sapiens, UniProt P00439, R408W)
T1 construct: expressed in transfected cells
T1 sequence (P00439 1-452 R408W): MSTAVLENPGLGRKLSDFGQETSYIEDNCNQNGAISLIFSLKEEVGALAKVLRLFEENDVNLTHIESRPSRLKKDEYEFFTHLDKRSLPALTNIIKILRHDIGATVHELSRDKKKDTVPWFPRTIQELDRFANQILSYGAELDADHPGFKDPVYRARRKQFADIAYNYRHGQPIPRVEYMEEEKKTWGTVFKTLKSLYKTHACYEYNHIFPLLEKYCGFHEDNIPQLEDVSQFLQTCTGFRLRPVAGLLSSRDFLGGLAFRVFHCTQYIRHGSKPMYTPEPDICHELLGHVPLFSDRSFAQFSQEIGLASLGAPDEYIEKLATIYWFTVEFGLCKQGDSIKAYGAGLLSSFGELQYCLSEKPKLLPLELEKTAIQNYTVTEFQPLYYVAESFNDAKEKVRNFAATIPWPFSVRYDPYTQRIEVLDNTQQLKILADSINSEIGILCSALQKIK
Assay: Cell Based Phenylalanine Flux Assay
Conditions: A375 R408W cells; 24 hrs with compound, then 20 μM sepiapterin and 800 μM 13C9,15N-Phenylalanine for 4 hours; 13C-Tyrosine by LC-MS; average where tested multiple times
Method in brief: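 LC-MS quantitation of 13C-tyrosine in media gave AC50 values. Stable A375 R408W PAH cells were preincubated 24 h with compound, then fed 800 μM labelled Phe plus 20 μM sepiapterin for 4 h. Dose curves were 10-point, tested in duplicate, averaged over repeat runs.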

AC50	Compound
500 to 1000 nM	Cc1ccc2oc([C@H]3c4nc[nH]c4CCN3C(=O)c3oc(C(C)(C)O)nc3C(F)F)nc2c1 [Example 312, (R)-(4-(difluoromethyl)-2-(2-hydroxypropan-2-yl)oxazol-5-yl)(4-(5-methylbenzo[d]oxazol-2-yl)-6,7-dihydro-1H-imidazo[4,5-c]pyridin-5(4H)-yl)methanone]
≤ 500 nM	Cc1ccc2oc([C@@H]3c4nc[nH]c4CCN3C(=O)c3ccnn3C(F)F)nc2c1 [Example 313, (S)-(1-(difluoromethyl)-1H-pyrazol-5-yl)(4-(5-methylbenzo[d]oxazol-2-yl)-6,7-dihydro-1H-imidazo[4,5-c]pyridin-5(4H)-yl)methanone]
500 to 1000 nM	Cc1ccc2oc([C@H]3c4nc[nH]c4CCN3C(=O)c3ccnn3C(F)F)nc2c1 [Example 314, (R)-(1-(difluoromethyl)-1H-pyrazol-5-yl)(4-(5-methylbenzo[d]oxazol-2-yl)-6,7-dihydro-1H-imidazo[4,5-c]pyridin-5(4H)-yl)methanone]
≤ 500 nM	Cc1ccc2nc([C@@H]3c4nc[nH]c4CCN3C(=O)c3oc(C(C)(C)O)nc3C(F)F)oc2c1 [Example 315, (S)-(4-(difluoromethyl)-2-(2-hydroxypropan-2-yl)oxazol-5-yl)(4-(6-methylbenzo[d]oxazol-2-yl)-6,7-dihydro-1H-imidazo[4,5-c]pyridin-5(4H)-yl)methanone]
1000 to 5000 nM	Cc1ccc2nc([C@H]3c4nc[nH]c4CCN3C(=O)c3oc(C(C)(C)O)nc3C(F)F)oc2c1 [Example 316, (R)-(4-(difluoromethyl)-2-(2-hydroxypropan-2-yl)oxazol-5-yl)(4-(6-methylbenzo[d]oxazol-2-yl)-6,7-dihydro-1H-imidazo[4,5-c]pyridin-5(4H)-yl)methanone]
≤ 500 nM	Cc1ccc2nc([C@@H]3c4nc[nH]c4CCN3C(=O)c3ccnn3C(F)F)oc2c1 [Example 317, (S)-(1-(difluoromethyl)-1H-pyrazol-5-yl)(4-(6-methylbenzo[d]oxazol-2-yl)-6,7-dihydro-1H-imidazo[4,5-c]pyridin-5(4H)-yl)methanone]
500 to 1000 nM	Cc1ccc2nc([C@H]3c4nc[nH]c4CCN3C(=O)c3ccnn3C(F)F)oc2c1 [Example 318, (R)-(1-(difluoromethyl)-1H-pyrazol-5-yl)(4-(6-methylbenzo[d]oxazol-2-yl)-6,7-dihydro-1H-imidazo[4,5-c]pyridin-5(4H)-yl)methanone]
500 to 1000 nM	Cc1ccc2nc([C@@H]3c4nc[nH]c4CCN3C(=O)c3oc(C(C)(C)O)nc3C)oc2c1 [Example 319, (S)-(2-(2-hydroxypropan-2-yl)-4-methyloxazol-5-yl)(4-(6-methylbenzo[d]oxazol-2-yl)-6,7-dihydro-1H-imidazo[4,5-c]pyridin-5(4H)-yl)methanone]
≥ 5000 nM	Cc1ccc2nc([C@H]3c4nc[nH]c4CCN3C(=O)c3oc(C(C)(C)O)nc3C)oc2c1 [Example 320, (R)-(2-(2-hydroxypropan-2-yl)-4-methyloxazol-5-yl)(4-(6-methylbenzo[d]oxazol-2-yl)-6,7-dihydro-1H-imidazo[4,5-c]pyridin-5(4H)-yl)methanone]
500 to 1000 nM	Cn1ccc(-c2nnc(C(=O)N3CCc4[nH]cnc4[C@H]3c3nc4ccc(F)cc4o3)o2)n1 [Example 321, (S)-(4-(6-fluorobenzo[d]oxazol-2-yl)-6,7-dihydro-1H-imidazo[4,5-c]pyridin-5(4H)-yl)(5-(1-methyl-1H-pyrazol-3-yl)-1,3,4-oxadiazol-2-yl)methanone]
1000 to 5000 nM	Cn1ccc(-c2nnc(C(=O)N3CCc4[nH]cnc4[C@@H]3c3nc4ccc(F)cc4o3)o2)n1 [Example 322, (R)-(4-(6-fluorobenzo[d]oxazol-2-yl)-6,7-dihydro-1H-imidazo[4,5-c]pyridin-5(4H)-yl)(5-(1-methyl-1H-pyrazol-3-yl)-1,3,4-oxadiazol-2-yl)methanone]
≤ 500 nM	Cc1ccc2c(C(=O)N3CCc4[nH]cnc4[C@H]3c3nc4cccc(F)c4o3)cnn2c1 [Example 323, (S)-(4-(7-fluorobenzo[d]oxazol-2-yl)-6,7-dihydro-1H-imidazo[4,5-c]pyridin-5(4H)-yl)(6-methylpyrazolo[1,5-a]pyridin-3-yl)methanone]
1000 to 5000 nM	Cc1ccc2c(C(=O)N3CCc4[nH]cnc4[C@@H]3c3nc4cccc(F)c4o3)cnn2c1 [Example 324, (R)-(4-(7-fluorobenzo[d]oxazol-2-yl)-6,7-dihydro-1H-imidazo[4,5-c]pyridin-5(4H)-yl)(6-methylpyrazolo[1,5-a]pyridin-3-yl)methanone]
≤ 500 nM	COc1ccc2c(C(=O)N3CCc4[nH]cnc4[C@H]3c3nc4cccc(F)c4o3)cnn2c1 [Example 325, (S)-(4-(7-fluorobenzo[d]oxazol-2-yl)-6,7-dihydro-1H-imidazo[4,5-c]pyridin-5(4H)-yl)(6-methoxypyrazolo[1,5-a]pyridin-3-yl)methanone]
1000 to 5000 nM	COc1ccc2c(C(=O)N3CCc4[nH]cnc4[C@@H]3c3nc4cccc(F)c4o3)cnn2c1 [Example 326, (R)-(4-(7-fluorobenzo[d]oxazol-2-yl)-6,7-dihydro-1H-imidazo[4,5-c]pyridin-5(4H)-yl)(6-methoxypyrazolo[1,5-a]pyridin-3-yl)methanone]
≤ 500 nM	CC(C)(O)c1nc(C(F)F)c(C(=O)N2CCc3[nH]cnc3[C@H]2c2nc3cc(C(F)(F)F)ccc3o2)o1 [Example 327, (S)-(4-(difluoromethyl)-2-(2-hydroxypropan-2-yl)oxazol-5-yl)(4-(5-(trifluoromethyl)benzo[d]oxazol-2-yl)-6,7-dihydro-1H-imidazo[4,5-c]pyridin-5(4H)-yl)methanone]
≤ 500 nM	CC(C)(O)c1nc(C(F)F)c(C(=O)N2CCc3[nH]cnc3[C@@H]2c2nc3cc(C(F)(F)F)ccc3o2)o1 [Example 328, (R)-(4-(difluoromethyl)-2-(2-hydroxypropan-2-yl)oxazol-5-yl)(4-(5-(trifluoromethyl)benzo[d]oxazol-2-yl)-6,7-dihydro-1H-imidazo[4,5-c]pyridin-5(4H)-yl)methanone]
≤ 500 nM	O=C(c1ocnc1C(F)F)N1CCc2[nH]cnc2[C@H]1c1nc2cc(C(F)(F)F)ccc2o1 [Example 329, (S)-(4-(difluoromethyl)oxazol-5-yl)(4-(5-(trifluoromethyl)benzo[d]oxazol-2-yl)-6,7-dihydro-1H-imidazo[4,5-c]pyridin-5(4H)-yl)methanone]
≤ 500 nM	O=C(c1ocnc1C(F)F)N1CCc2[nH]cnc2[C@@H]1c1nc2cc(C(F)(F)F)ccc2o1 [Example 330, (R)-(4-(difluoromethyl)oxazol-5-yl)(4-(5-(trifluoromethyl)benzo[d]oxazol-2-yl)-6,7-dihydro-1H-imidazo[4,5-c]pyridin-5(4H)-yl)methanone]
500 to 1000 nM	Cc1ccc2oc([C@@H]3c4nc[nH]c4CCN3C(=O)c3oc(C(C)(C)O)nc3C)nc2c1 [Example 331, (S)-(2-(2-hydroxypropan-2-yl)-4-methyloxazol-5-yl)(4-(5-methylbenzo[d]oxazol-2-yl)-6,7-dihydro-1H-imidazo[4,5-c]pyridin-5(4H)-yl)methanone]
1000 to 5000 nM	Cc1ccc2oc([C@H]3c4nc[nH]c4CCN3C(=O)c3oc(C(C)(C)O)nc3C)nc2c1 [Example 332, (R)-(2-(2-hydroxypropan-2-yl)-4-methyloxazol-5-yl)(4-(5-methylbenzo[d]oxazol-2-yl)-6,7-dihydro-1H-imidazo[4,5-c]pyridin-5(4H)-yl)methanone]
≤ 500 nM	O=C(c1nnc(-c2ccccn2)o1)N1CCc2[nH]cnc2[C@H]1c1nc2c(F)cccc2o1 [Example 333, (S)-(4-(4-fluorobenzo[d]oxazol-2-yl)-6,7-dihydro-1H-imidazo[4,5-c]pyridin-5(4H)-yl)(5-(pyridin-2-yl)-1,3,4-oxadiazol-2-yl)methanone]
1000 to 5000 nM	O=C(c1nnc(-c2ccccn2)o1)N1CCc2[nH]cnc2[C@@H]1c1nc2c(F)cccc2o1 [Example 334, (R)-(4-(4-fluorobenzo[d]oxazol-2-yl)-6,7-dihydro-1H-imidazo[4,5-c]pyridin-5(4H)-yl)(5-(pyridin-2-yl)-1,3,4-oxadiazol-2-yl)methanone]
≤ 500 nM	O=C(c1nnc(-c2ccccn2)o1)N1CCc2[nH]cnc2[C@H]1c1nc2cccc(F)c2o1 [Example 335, (S)-(4-(7-fluorobenzo[d]oxazol-2-yl)-6,7-dihydro-1H-imidazo[4,5-c]pyridin-5(4H)-yl)(5-(pyridin-2-yl)-1,3,4-oxadiazol-2-yl)methanone]
500 to 1000 nM	O=C(c1nnc(-c2ccccn2)o1)N1CCc2[nH]cnc2[C@@H]1c1nc2cccc(F)c2o1 [Example 336, (R)-(4-(7-fluorobenzo[d]oxazol-2-yl)-6,7-dihydro-1H-imidazo[4,5-c]pyridin-5(4H)-yl)(5-(pyridin-2-yl)-1,3,4-oxadiazol-2-yl)methanone]
≤ 500 nM	Cn1ccc(-c2nnc(C(=O)N3CCc4[nH]cnc4[C@H]3c3nc4cccc(F)c4o3)o2)n1 [Example 337, (S)-(4-(7-fluorobenzo[d]oxazol-2-yl)-6,7-dihydro-1H-imidazo[4,5-c]pyridin-5(4H)-yl)(5-(1-methyl-1H-pyrazol-3-yl)-1,3,4-oxadiazol-2-yl)methanone]
